Data published in patent publication US20090291048A1, “LEUKOCYTE-BINDING POLYPEPTIDES AND USES THEREOF” (Baker IDI Heart and Diabetes Institute Holdings Limited, priority 2005, published 2009).

Test system: GPIIb/IIIa (αIIbβ3, CD41/CD61), native or GFFKR-deleted, on CHO cells
Assay: Flow cytometry cross-reactivity with GPIIb/IIIa-expressing CHO cells
Format: binding
Conditions: CHO cells with native (non-activated) or GFFKR-deleted (activated) GPIIb/IIIa
Protocol: Cross-reactivity with another fibrinogen binding integrin was assessed in flow cytometry using CHO cells expressing either a GFFKR-deleted and thereby activated GPIIb/IIIa or the native and thereby non-activated platelet integrin GPIIb/IIIa (details of cell generation have been described previously).^30,31 The expression of the activated conformation was determined by the binding of the activation-specific antibody Pac-1. MAN-1 binding was measured by an Alexa Fluor 488-conjugated anti-His-tag secondary antibody. […] Thus, no cross-reactivity to GPIIb/IIIa was seen. A typical result out of three experiments is shown.
Since one of the Mac-1 ligands, fibrinogen, also binds to the platelet integrin GPIIb/IIIa (αIIIbβ3, CD41/CD61) potential cross-reactivity of MAN-1 with this integrin was also evaluated. For this purpose, recombinant CHO cell lines were used, expressing native, non-activated and GFFKR-deleted, activated GPIIb/IIIa as described elsewhere (O'Toole et al J. Cell Biol. 1994; 124:1047-1059; Peter et al, J Exp Med. 1995; 181:315-326; Tadokoro et al Science. 2003; 302:103-106).

Sequence of GPIIb/IIIa (αIIbβ3, CD41/CD61), native or GFFKR-deleted, on CHO cells (P08514 32-887 limits assumed, stated change not applied): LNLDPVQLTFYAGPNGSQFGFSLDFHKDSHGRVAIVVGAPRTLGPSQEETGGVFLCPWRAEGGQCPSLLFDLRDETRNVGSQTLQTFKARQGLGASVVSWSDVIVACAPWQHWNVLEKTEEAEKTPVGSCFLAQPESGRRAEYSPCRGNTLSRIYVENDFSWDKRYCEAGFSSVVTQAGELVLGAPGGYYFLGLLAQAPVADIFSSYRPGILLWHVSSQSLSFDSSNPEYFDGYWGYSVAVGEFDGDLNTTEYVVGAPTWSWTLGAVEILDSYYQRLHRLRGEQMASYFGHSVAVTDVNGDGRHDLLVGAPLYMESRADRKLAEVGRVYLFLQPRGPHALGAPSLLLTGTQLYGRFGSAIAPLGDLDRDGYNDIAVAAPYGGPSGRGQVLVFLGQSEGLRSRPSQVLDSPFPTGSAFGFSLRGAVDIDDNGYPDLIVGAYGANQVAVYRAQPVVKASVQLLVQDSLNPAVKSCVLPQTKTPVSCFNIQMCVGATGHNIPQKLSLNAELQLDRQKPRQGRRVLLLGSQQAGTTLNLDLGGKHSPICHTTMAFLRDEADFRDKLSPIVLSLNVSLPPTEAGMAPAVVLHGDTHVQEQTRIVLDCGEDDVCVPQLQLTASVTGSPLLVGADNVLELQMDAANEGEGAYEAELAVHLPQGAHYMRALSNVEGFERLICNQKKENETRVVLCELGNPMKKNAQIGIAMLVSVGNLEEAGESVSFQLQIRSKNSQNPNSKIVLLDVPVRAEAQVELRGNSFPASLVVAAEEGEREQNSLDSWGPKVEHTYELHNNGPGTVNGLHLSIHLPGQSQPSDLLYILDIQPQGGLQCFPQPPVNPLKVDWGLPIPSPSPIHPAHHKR
Sequence of GPIIb/IIIa (αIIbβ3, CD41/CD61), native or GFFKR-deleted, on CHO cells (P08514 891-1019 limits assumed, stated change not applied): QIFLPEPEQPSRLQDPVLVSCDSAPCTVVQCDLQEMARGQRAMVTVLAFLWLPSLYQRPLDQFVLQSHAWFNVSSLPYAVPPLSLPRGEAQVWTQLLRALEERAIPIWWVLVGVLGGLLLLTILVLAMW
Sequence of GPIIb/IIIa (αIIbβ3, CD41/CD61), native or GFFKR-deleted, on CHO cells (P05106 27-788, stated change not applied, further chain): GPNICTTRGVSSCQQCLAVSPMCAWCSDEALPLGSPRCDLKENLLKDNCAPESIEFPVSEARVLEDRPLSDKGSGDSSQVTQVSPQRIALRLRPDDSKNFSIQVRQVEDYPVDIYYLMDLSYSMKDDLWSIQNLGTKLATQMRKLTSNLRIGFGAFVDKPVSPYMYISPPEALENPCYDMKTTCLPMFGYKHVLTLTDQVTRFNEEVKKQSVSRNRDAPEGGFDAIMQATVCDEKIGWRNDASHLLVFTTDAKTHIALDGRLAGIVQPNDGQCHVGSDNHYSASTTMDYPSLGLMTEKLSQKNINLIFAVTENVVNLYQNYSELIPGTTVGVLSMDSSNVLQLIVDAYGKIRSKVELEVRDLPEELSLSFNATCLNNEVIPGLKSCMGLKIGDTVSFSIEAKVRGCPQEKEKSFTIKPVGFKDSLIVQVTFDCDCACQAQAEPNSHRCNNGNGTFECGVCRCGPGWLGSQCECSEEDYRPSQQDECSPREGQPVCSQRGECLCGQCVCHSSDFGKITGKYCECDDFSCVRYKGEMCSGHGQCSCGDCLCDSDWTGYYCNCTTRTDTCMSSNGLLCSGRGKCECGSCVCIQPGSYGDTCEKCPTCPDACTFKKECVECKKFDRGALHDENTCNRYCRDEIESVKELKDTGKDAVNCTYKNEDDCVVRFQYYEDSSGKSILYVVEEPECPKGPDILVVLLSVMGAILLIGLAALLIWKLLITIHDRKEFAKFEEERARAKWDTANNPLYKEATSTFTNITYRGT

Pac-1
Binding to GPIIb/IIIa: binds to the activated GPIIb/IIIa
